Assay results as given in patent US5348941A, “Stabilizers for fibroblast growth factors” (Merck & Co., Inc., priority 1992, dated 1994).
Values belong to the compound of their own block, whether it stands above or below them.

Tests used:
aFGF = biological target: T1, aFGF (Homo sapiens, UniProt P05230); test: Thermal denaturation (Tm) of aFGF by circular dichroism; assay type: biochemical; conditions: for Tm of aFGF (maximum Tm induced by ligand), circular dichroism: PBS pH 7.2, excess ligand (1-3X by weight; 120 mM sodium sulfate, 10 mM tetrapolyphosphate); for Tm of aFGF, circular dichroism: 3X ligand by weight
T1 construct: The recombinant derived, 140 amino add form is the preferred form of aFGF; N-terminal methionine (MetHaFGF); made in house; host or cells: microbial cells (preferred embodiment)
T1 sequence (P05230 16-155 limits assumed): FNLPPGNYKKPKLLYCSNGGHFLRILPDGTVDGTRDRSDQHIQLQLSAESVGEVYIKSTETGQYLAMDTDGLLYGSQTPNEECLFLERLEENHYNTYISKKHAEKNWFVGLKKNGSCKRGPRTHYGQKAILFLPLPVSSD

[1] = test system: BALB/c 3T3 A31 fibroblasts; test: Fibroblast mitogenic assay ([3H]-thymidine incorporation into DNA); assay type: cell-based; set-up: Bioactivity (mitogenic activity of aFGF in the presence of ligand): unit not given here; conditions: for Bioactivity (mitogenic activity of aFGF in the presence of ligand): complete absence of heparin, < = response did not plateau, * = cell death observed; for mitogenic activity of aFGF: absence of heparin
Procedure: Biological activity of the formulation of the instant invention is determined by a modification of the fibroblast mitogenic assay as described by Linemeyer et al. in European Patent Application, Publication No. 259,953. BALB/c 3T3 A31 fibroblasts (American Type Culture Collection) are plated at about 3×10^5 cells per 32 cm^2 wells in culture media containing about 10% heat-inactivated calf serum and incubated in about 7% CO2 (pH 7.35±0.05). The cells become fully quiescent by replacing the media with serum free media at about 6, about 24 hours and about 48 hours later. At about 53 hours after plating samples of the various formulations are added and about 0.12 μg of dexamethasone are added. At about 65 hours each well is supplemented with about 0.4 μCi of [methyl-^3 H]-thymidine (20 Ci/mmole, Dupont) and 0.6 μg of unlabeled thymidine (Sigma), and at 80 hours the cells are processed for determination of radiolabel incorporation into DNA. Each dose-response point is the average of at least quadruplicate determinations. Other cell types such vascular endothelial cells and corneal endothelial cells can be employed to determine in vitro mitogenicity. The procedures are described in detail by Thomas et al., Proc. Natl. Acad. Sci. USA 82:6409-6431 (1985).
^(d) Mitogenic activity of aFGF was measured in the presence of ligan
indicated in the complete absence of heparin.
*indicates cell death observed during assay.
Biological activity of the formulation of the instant invention was determined by a modification of the fibroblast mitogenic assay as described by Linemeyer et al. in European Patent Application, Publication No. 259,953. BALB/c 3T3 A31 fibroblasts (American Type Culture Collection) were plated at 3×10^5 cells per 32 cm^2 well in culture media containing about 10% heat-inactivated calf serum and incubated in 7% CO2 (pH 7.35±0.05). The cells become fully quiescent by replacing the media with serum free media at 6, 24 hours and 48 hours later. At 53 hours after plating samples of the various formulations were added and 0.12 μg of dexamethasone was added, at 65 hours each well was supplemented with 0.4 μCi of [methyl-^3 H]-thymidine (20 Ci/mmole, Dupont) and 0.6 μg of unlabeled thymidine (Sigma), and at 80 hours the cells were processed for determination of radiolabel incorporation into DNA. Each dose-response point is the average of at least quadruplicate determinations. Other cell types such vascular endothelial cells and corneal endothelial cells can be employed to determine in vitro mitogenidty. The procedures are described in detail by Thomas et al., Proc. Natl. Acad. Sci. USA 82:6409-6431 (1985).

Compound: O=P(O)(O)O[C@H]1[C@H](OP(=O)(O)O)[C@@H](OP(=O)(O)O)[C@H](OP(=O)(O)O)[C@@H](OP(=O)(O)O)[C@H]1OP(=O)(O)O [Inositol hexaphosphate, inositol hexaphosphate]
Tm of aFGF (maximum Tm induced by ligand), circular dichroism (aFGF): 70 °C
mitogenic activity of aFGF [1]: did not show any appreciable mitogenic activity
Bioactivity (mitogenic activity of aFGF in the presence of ligand) [1]: < 0.6

Compound: O=S(=O)(O)OC1C(OS(=O)(=O)O)C(OS(=O)(=O)O)C(OS(=O)(=O)O)C(OS(=O)(=O)O)C1OS(=O)(=O)O (stereo not drawn) [Inositol hexasulfate, inositol hexasulfate]
Tm of aFGF (maximum Tm induced by ligand), circular dichroism (aFGF): 66 °C
Bioactivity (mitogenic activity of aFGF in the presence of ligand) [1]: 2.3

Compound: heparin [reference compound]
Tm of aFGF, circular dichroism (aFGF): 64 °C
Tm of aFGF (maximum Tm induced by ligand), circular dichroism (aFGF): 64 °C
Bioactivity (mitogenic activity of aFGF in the presence of ligand) [1]: 4.2

Compound: sulfated β-cyclodextrin
Tm of aFGF, circular dichroism (aFGF): 65 °C
Tm of aFGF (maximum Tm induced by ligand), circular dichroism (aFGF): 65 °C
Bioactivity (mitogenic activity of aFGF in the presence of ligand) [1]: 3.7

Continued, in another order:

Tm of aFGF (maximum Tm induced by ligand), circular dichroism (aFGF): 66 °C
Compound: low molecular weight heparin [Low MW heparin, reference compound]
Bioactivity (mitogenic activity of aFGF in the presence of ligand) [1]: 4.0

Tm of aFGF (maximum Tm induced by ligand), circular dichroism (aFGF): 62 °C
Compound: dextran sulfate
Bioactivity (mitogenic activity of aFGF in the presence of ligand) [1]: 5.0

Tm of aFGF (maximum Tm induced by ligand), circular dichroism (aFGF): 66 °C
Compound: O=P(O)(O)OP(=O)(O)OP(=O)(O)OP(=O)(O)O [Tetrapolyphosphate]
mitogenic activity of aFGF [1]: did not show any appreciable mitogenic activity
Bioactivity (mitogenic activity of aFGF in the presence of ligand) [1]: < 0.25
